Reference: patent US11833128B2, “Ketone carbonyl-containing hydrophobic antitumor drug and conjugate thereof as well as nano preparation containing conjugate, preparation method therefor, and application thereof” (Jiangsu Jibeier Pharmaceutical Co. Ltd., priority 2018, dated 2023)

Legend:
[1] = tested on: human lung cancer A549 xenograft; assay: Tumor inhibitory effect of DTX-AI in nude mice bearing human lung cancer A549 xenograft; conditions: iv x 4 (qw); for Animal body weight (g) (After tumor removal): Day 43; for Tumor inhibition rate %: Day 43 (21st day from the last administration);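 for all read-outs here: mice implanted subcutaneously with A549 tumor fragments, grouped 14 days later at mean tumor volume near 210–250 mm^3, grouping set as Day 0, animals sacrificed on Day 43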
Description: A well-grown A549 lung cancer solid tumor was taken and cut into uniform small masses having a size of about 3 mm under sterile conditions. Each mouse was inoculated subcutaneously under the right armpit with one mass by using a trocar. 14 days after inoculation, the average tumor volume was about 210 to 250 mm^3. The mice were grouped according to the tumor sizes, and the average tumor volume of each group was basically the same. […] The long diameters (a) and the short diameters (b) of the tumors were measured with an electronic digital caliper twice a week. The calculation formula of tumor volume (TV) was: TV=½×a×b^2. The calculation formula of the relative tumor volume (RTV) was: RTV=Vt/V0, wherein V0 was the tumor volume measured at the time of grouping (namely, d0), and Vt was the tumor volume at each measurement. […] On Day 43 (56 days after inoculation), the animals were sacrificed and dissected, the tumors were incised and weighed, and the body weights of the animals after tumor removal were calculated.

[2] = tested on: Hela tumor; assay: Effects of the pH-responsive nano preparations on tumor in vivo (Hela tumor-bearing mice); conditions: tail vein, once every seven days x3; for relative tumor inhibition rate: 30th day from the last administration
Description: Hela tumor-bearing mice were divided into four groups with five mice in each group. The first, second, and third groups were the treatment groups, in which tumor treatment was carried out by respectively injecting the drug via the tail vein of each Hela tumor-bearing mouse. […] The fourth group was the blank control group.
The mice in the first, second and third groups were treated by administering drugs once every seven days for a total of three injections. Each tumor-bearing mouse in each group was labeled, and the body weight and the tumor volume thereof throughout the treatment process were recorded. The tumor volume was calculated according to the following formula: V (mm^3)=½×length (mm)×width (mm)^2.
Moreover, the relative tumor inhibition rate was also calculated and analyzed.

## CC(=O)OC12COC1CC(O)C1(C)C(=O)C(OC(=O)Nc3ccc(C(C)=O)cc3)C3=C(C)C(OC(=O)C(O)C(NC(=O)OC(C)(C)C)c4ccccc4)CC(O)(C(OC(=O)c4ccccc4)C21)C3(C)C (stereo not shown) [DTX-AI]
[1]; 20 mg/kg
  RTV (Day 43): 6.62 ± 2.10
  body weights of the animals after administering (FIG. 9), in words: basically not affected
  Animal body weight (g) (After tumor removal): 25.52 ± 0.99 g
  Tumor inhibition rate %: 62.38%
[1]; 40 mg/kg, 60 mg/kg and 80 mg/kg groups
  tumor rebound after drug withdrawal: no tumor rebound occurred
[1]; 40 mg/kg
  RTV (Day 43): 0.13 ± 0.03
  body weights of the animals after administering (FIG. 9), in words: slightly reduced
  Animal body weight (g) (After tumor removal): 24.07 ± 1.19 g
  Tumor inhibition rate %: 99.28%
[1]; 60 mg/kg
  RTV (Day 43): 0.09 ± 0.02
  body weights of the animals after administering (FIG. 9), in words: slightly reduced
  Animal body weight (g) (After tumor removal): 24.24 ± 1.43 g
  Tumor inhibition rate %: 99.50%
[1]; 80 mg/kg
  RTV (Day 43): 0.13 ± 0.05
  body weights of the animals after administering (FIG. 9), in words: reduced
  Animal body weight (g) (After tumor removal): 20.99 ± 2.86 g
  Tumor inhibition rate %: 99.27%
[1]; 4 dose groups (20, 40, 60, 80 mg/kg)
  death of animals: No death occurred
[2]; 40 mg DTX/kg
  relative tumor volume after 21 days (after the administration was stopped) (FIG. 5): still showed a decreasing trend with time
  tumor sizes after the completion of the treatment (photograph, FIG. 7): significantly smaller than those of the first group and the blank control group
  relative tumor inhibition rate: 93.5%
[2]; 40 mg DTX/kg, compared with blank control group
  body weights of the mice over treatment time (FIG. 4): basically the same as those in the blank control group

## CC(=O)O[C@@]12CO[C@@H]1C[C@H](O)[C@@]1(C)C(=O)[C@H](O)C3=C(C)[C@@H](OC(=O)[C@H](O)[C@@H](NC(=O)OC(C)(C)C)c4ccccc4)C[C@@](O)([C@@H](OC(=O)c4ccccc4)[C@H]21)C3(C)C [Docetaxel, docetaxel, reference compound]
[1]; 20 mg/kg
  RTV (Day 43): 2.73 ± 1.36
  body weights of the animals after administering (FIG. 9), in words: reduced
  death of animals: no death
  Animal body weight (g) (After tumor removal): 25.35 ± 1.15 g
  Tumor inhibition rate %: 84.50%
[1]; 40 mg/kg
  RTV (Day 43): 0.13 ± 0.02
  body weights of the animals after administering (FIG. 9), in words: severely reduced
  Animal body weight (g) (After tumor removal): 18.71 ± 2.78 g
  Tumor inhibition rate %: 99.24%
[1]; 40 mg/kg, died on Day 33
  death of animals (number of animals died): 1 animal
[2]; 25 mg DTX/kg
  relative tumor volume after 21 days (after the administration was stopped) (FIG. 5): continued to increase with time
  relative tumor inhibition rate: 67.62%
